The values below come from patent publication US20240239790A1, “7-Morpholino-1,6-Naphthyridin-5-yl Derivatives and Pharmaceutical Compositions Thereof Useful as DNA-PK Inhibitor” (adMare Therapeutics Society, priority 2021, published 2024).

Molecules are shown by their SMILES. Read-outs that look alike come from different tables or passages of the source. Marks after values point to notes of the source that are not given here. Where only a bound is given, the exact number is not on record here.

The target of one data set is T1, DNA-PK (Homo sapiens, UniProt P78527).
T1 construct: purchased Invitrogen PR9107A
The data set is described as follows: DNA-PK Assay for Biochemical Enzymatic Inhibition (ADP Glo Kinase assay). Conditions: DNA-PK enzyme, Table 1. In outline:
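Human DNA-PK (25 ng) preincubated 15 min with compounds (ten three-fold dilutions) in HEPES pH 7.5, MgCl2, KCl, calf thymus DNA buffer, then substrate 434.4 μM and ATP 64.4 μM (final) for 60 min at room temperature. ADP-Glo luminescence; percent inhibition fitted by four-parameter regression for IC50.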

Data set [1] can be described thus: Microsomal Stability Assay, mouse liver microsomes. Format: in vitro ADME. Conditions: for microsomal CLint at 0.1 uM: male, CD-1, pH 7.4, mouse liver microsomes 0.1 mg/mL, 0.1 uM compound; for Microsomal Stability Mouse % rem. 60 min: mouse liver microsomes. Here is the method: (§1) Samples were then mixed and centrifuged. Supernatants were used for HPLC-MS/MS analysis. […] Peak areas corresponding to the test compound were recorded.
In general terms: Liver microsomes are vesicles of endoplasmic reticulum, rich in cytochrome P450 enzymes.

Data set [2] in a line: Microsomal Stability Assay, human liver microsomes. Type of data set: in vitro ADME. Particulars: for microsomal CLint at 0.1 uM: both sexes, pH 7.4, human liver microsomes 0.1 mg/mL, 0.1 uM compound; for Microsomal Stability Human % rem. 60 min: human liver microsomes. As for the experimental part: as §1
Data set [3] is described as follows: Pharmacokinetic study in mice (IV and PO), plasma. Format: in vivo, mouse. Conditions: for Rsq: Mouse Plasma, fit of NCA; for Cmax: read-out: Cmax (5 min). Here is the method: Pharmacokinetic analysis of compounds was conducted following bolus intravenous (IV) or bolus oral (PO) gavage in mice. Female mice (C57BL/6) in the 17-26 g range were weighed, and then administered an individually prescribed dose volume based on body weight of formulated compound via the intravenous (IV; tail vein) or oral gavage (PO) route (IV 5 mL/kg; PO 10 mL/kg). At selected timepoints post administration, blood was collected into vials with anticoagulant, processed for plasma by centrifugation, and then kept frozen ([…]) until analysis.
The in-vivo study plasma samples were analyzed using Ultra Performance Liquid Chromatography (UPLC) with tandem mass spectrometry (MS/MS) detection in multiple reaction monitoring (MRM) mode. A generic bioanalytical method involving plasma sample extraction and cleanup by protein precipitation with acetonitrile was used followed by UPLC-MS/MS analysis.
A brief example of a generic bioanalytical UPLC-MS/MS method used for analysis of compounds in the in-vivo study plasma samples is as follows. Plasma samples were spiked with internal standard prior to extraction and cleanup by protein precipitation with ice cold acetonitrile containing 0.1% (v/v) ammonium hydroxide at a ratio of 3:1 (solvent:plasma) and centrifuged at 18213 rcf for 15 minutes at 4° C. to pellet precipitates. Aliquots of supernatants were transferred to a 96-well plate and evaporated to dryness at 40° C. under a stream of nitrogen gas. Samples were reconstituted in 50:50 acetonitrile/10 mM ammonium acetate buffer pH 8, mixed thoroughly and analyzed using Ultra Performance Liquid Chromatography (UPLC) with tandem mass spectrometry (MS/MS) detection in multiple reaction monitoring (MRM) mode. Matrix-matched calibration standards and quality control (QC) samples were prepared in naïve C57Bl/6 mouse plasma. The UPLC column used was Waters Acquity UPLC BEH C18 1.7 um, 2.1 mm×50 mm (with guard column). The UPLC mobile phase consisted of: Mobile phase A: 10 mM ammonium acetate in Water pH 8, and Mobile phase B: Acetonitrile. Separation was accomplished with a linear gradient of 5% mobile phase B to 95% mobile phase B in 2 min, and a flow rate of 0.35 mL/min. The MS/MS data acquisition was accomplished using 3 MRM Transitions in ESI+ mode. Parent ion mass 508.37 m/z-to-Daughter ions (m/z) 117.05, 232.13 and 270.22. The quantitation of concentrations in test samples was achieved by matrix-matched calibration with normalization using an internal standard. Data acquisition and analysis were performed using Waters MassLynx software with TargetLynx application manager.
Estimation of PK parameters was performed using independent noncompartmental model method by PHOENIX WinNonlin software.

Where [4] appears, read: female, C57BL/6, po, mouse plasma, PC, 3 mg/kg.
[5] abbreviates: female, C57BL/6, mouse plasma, IV, 1 mg/kg.
Setting [6] is: female, C57BL/6, mouse plasma, IV, 3 mg/kg.
Where [7] appears, read: female, C57BL/6, mouse plasma, PO, 10 mg/kg.

Take `CN(C)C(=O)COc1cnc(N[C@H]2CC[C@@H](Oc3nc(N4CCOCC4)cc4ncccc34)CC2)nc1` [Compound 54, N,N-Dimethyl-2-((2-(((1s,4s)-4-((7-morpholino-1,6-naphthyridin-5-yl)oxy)cyclohexyl)amino)pyrimidin-5-yl)oxy)acetamide]: the IC50 at DNA-PK lay within 0.5 to 1 nM. In addition, in data set [1], the intrinsic clearance (microsomal CLint) at 0.1 uM is less than 116 µL/min/mg and the “Microsomal Stability Mouse % rem. 60 min” value is reported as “G (% remaining = 50-75%)”. Also, in data set [2], the intrinsic metabolic clearance (microsomal CLint) at 0.1 uM is more than 116 µL/min/mg and the “Microsomal Stability Human % rem. 60 min” value was “E (% remaining = 0-25%)”. In data set [3] (setting [4]), this compound had an AUC(0-t) of 7650 ng·h/mL, a maximum concentration (Cmax) at 5 min of 2220 ng/mL and a half-life of 2.33 h. For the same compound, in data set [3] (female, C57BL/6, po, mouse plasma, PC, 3 mg/kg, read-out: AUCINF—obs), the AUC(0-inf) is 7660 ng·h/mL. Also, in data set [3] (setting [5]), the area under the curve AUC(0-t) was 3700 ng·h/mL, the C0 worked out at 3310 ng/mL, the concentration peaked (Cmax at 5 min) at 2820 ng/mL and the half-life is 1.69 h. The AUC(0-inf) in data set [3] (female, C57BL/6, mouse plasma, IV, 1 mg/kg, read-out: AUCINF—obs) was 3710 ng·h/mL. Moreover, in data set [3] (mouse plasma, IV, 1 mg/kg), the “AUC—% Extrap—obs” value is 0.10%, the Cl_obs is given as 264 mL/h/kg and the Vz_obs is 646 mL/kg. Besides, in data set [3] (mouse plasma, PC, 3 mg/kg), the “AUC—% Extrap—obs” value stood at 0.07%, the Cl_obs is listed as 358^b mL/h/kg and the Vz_obs is given as 1205^a mL/kg. This compound also returned a F in data set [3] (mouse, PC, 3 mg/kg) of 74%.

Regarding `O=C(COc1cnc(N[C@H]2CC[C@@H](Oc3nc(N4CCOCC4)cc4ncccc34)CC2)nc1)N1CCOCC1` [Compound 61, 1-Morpholino-2-((2-(((1s,4s)-4-((7-morpholino-1,6-naphthyridin-5-yl)oxy)cyclohexyl)amino)pyrimidin-5-yl)oxy)ethan-1-one], the IC50 at DNA-PK lay within 0.5 to 1 nM. In data set [1], the microsomal CLint at 0.1 uM is less than 116 µL/min/mg and the “Microsomal Stability Mouse % rem. 60 min” value was “H (% remaining = 75-100%)”. In data set [2], the microsomal CLint at 0.1 uM is more than 116 µL/min/mg and the “Microsomal Stability Human % rem. 60 min” value is listed as “F (% remaining = 25-50%)”. Besides, the Rsq in data set [3] (IV, 3 mg/kg) stood at 0.97. This compound had a Rsq in data set [3] (PO, 10 mg/kg) of 0.93. Also, the F in data set [3] (Mouse, PO 10 mg/kg vs IV 3 mg/kg) was determined as 72%. In data set [3] (setting [6]), the exposure AUC(0-t) came to 5210 ng·h/mL, the Cmax at 5 min is 4900 ng/mL and the half-life was 2.2 h. In addition, the AUC(0-inf) in data set [3] (female, C57BL/6, mouse plasma, IV, 3 mg/kg, read-out: AUCINF_obs) was 5340 ng·h/mL. In data set [3] (setting [7]), this compound had an AUC(0-t) of 12600 ng·h/mL, a Cmax at 5 min of 3510 ng/mL and a half-life of 2.05 h. In addition, in data set [3] (female, C57BL/6, mouse plasma, PO, 10 mg/kg, read-out: AUCINF_obs), the AUC(0-inf) turned out to be 12600 ng·h/mL. In data set [3] (mouse plasma, IV, 3 mg/kg), the “AUC_% Extrap_obs” value was 2.45%, the Cl_obs was found to be 561.75 mL/h/kg and the Vz_obs stood at 1784.9 mL/kg. Also, in data set [3] (mouse plasma, PO, 10 mg/kg), the “AUC_% Extrap_obs” value was determined as 0.05%, the Cl_obs is 795.88 mL/h/kg and the Vz_obs amounted to 2356.41 mL/kg.

On to `CN1CCN(CCOc2cnc(N[C@H]3CC[C@@H](Oc4nc(N5CCOCC5)cc5ncccc45)CC3)nc2)CC1` [Compound 69, 5-(2-(4-Methylpiperazin-1-yl)ethoxy)-N-((1s,4s)-4-((7-morpholino-1,6-naphthyridin-5-yl)oxy)cyclohexyl)pyrimidin-2-amine], for which, at DNA-PK, the IC50 was less than 0.5 nM. In data set [1], the microsomal CLint at 0.1 uM is more than 116 µL/min/mg and the “Microsomal Stability Mouse % rem. 60 min” value is listed as “F (% remaining = 25-50%)”. In data set [2], the microsomal CLint at 0.1 uM is less than 116 µL/min/mg and the “Microsomal Stability Human % rem. 60 min” value is “G (% remaining = 50-75%)”. In data set [3] (setting [6]), the AUC(0-t) is 1630 ng·h/mL, the half-life was 4.63 h and the Cmax stood at 611 ng/mL. In addition, in data set [3] (female, C57BL/6, mouse plasma, IV, 3 mg/kg, read-out: AUCINF—obs), the AUC(0-inf) was 2270 ng·h/mL. Also, in data set [3] (setting [7]), the AUC(0-t) stood at 5680 ng·h/mL, the half-life is 5.4 h and the Cmax amounted to 549 ng/mL. Moreover, the AUC(0-inf) in data set [3] (female, C57BL/6, mouse plasma, PO, 10 mg/kg, read-out: AUCINF—obs) is 6070 ng·h/mL. Besides, in data set [3] (mouse plasma, IV, 3 mg/kg), the “AUC—% Extrap—obs” value came to 28.28%, the Cl_obs is reported as 1321.88 mL/h/kg and the Vz_obs worked out at 8824.88 mL/kg. In addition, in data set [3] (mouse plasma, PO, 10 mg/kg), the “AUC—% Extrap—obs” value worked out at 6.56%, the Cl_obs turned out to be 1646.25 mL/h/kg and the Vz_obs is on record as 12835.77 mL/kg. Also, the F in data set [3] (mouse, PO, 10 mg/kg) came out at 105%.

For `CNC(=O)COc1cnc(N[C@H]2CC[C@@H](Oc3nc(N4CCOCC4)cc4ncccc34)CC2)nc1` [Compound 71, N-Methyl-2-((2-(((1s,4s)-4-((7-morpholino-1,6-naphthyridin-5-yl)oxy)cyclohexyl)amino)pyrimidin-5-yl)oxy)acetamide], the IC50 on DNA-PK is less than 0.5 nM. Further, in data set [1], the microsomal CLint at 0.1 uM is less than 116 µL/min/mg and the “Microsomal Stability Mouse % rem. 60 min” value is “G (% remaining = 50-75%)”. Further, in data set [2], the microsomal CLint at 0.1 uM was less than 116 µL/min/mg and the “Microsomal Stability Human % rem. 60 min” value was “F (% remaining = 25-50%)”.

With `CN(C)C(=O)COc1ccc(C(=O)N[C@H]2CC[C@@H](Oc3nc(N4CCOCC4)cc4ncccc34)CC2)cn1` [Compound 117, 6-(2-(dimethylamino)-2-oxoethoxy)-N-((1s,4s)-4-((7-morpholino-1,6-naphthyridin-5-yl)oxy)cyclohexyl)nicotinamide], on DNA-PK, the IC50 was 0.5 to 1 nM. Moreover, in data set [1], the microsomal CLint at 0.1 uM is less than 116 µL/min/mg and the “Microsomal Stability Mouse % rem. 60 min” value is “F (% remaining = 25-50%)”. Also, in data set [2], the microsomal CLint at 0.1 uM was more than 116 µL/min/mg and the “Microsomal Stability Human % rem. 60 min” value is “E (% remaining = 0-25%)”.

Consider `CN(C)C(=O)Cn1ccc(C(=O)N[C@H]2CC[C@@H](Oc3nc(N4CCOCC4)cc4ncccc34)CC2)c1` [Compound 141, 1-(2-(dimethylamino)-2-oxoethyl)-N-((1s,4s)-4-((7-morpholino-1,6-naphthyridin-5-yl)oxy)cyclohexyl)-1H-pyrrole-3-carboxamide], for which, on DNA-PK, the IC50 is less than 0.5 nM. Also, in data set [1], the microsomal CLint at 0.1 uM is less than 116 µL/min/mg and the “Microsomal Stability Mouse % rem. 60 min” value was “G (% remaining = 50-75%)”. In data set [2], the intrinsic clearance (microsomal CLint) at 0.1 uM was less than 116 µL/min/mg and the “Microsomal Stability Human % rem. 60 min” value is given as “G (% remaining = 50-75%)”.

`CN(C)C(=O)COc1cnc(N[C@H]2CC[C@@H](Oc3nc(N4CCOCC4)cc4ncc(NS(C)(=O)=O)cc34)CC2)nc1` [Compound 182, N,N-dimethyl-2-((2-(((1s,4s)-4-((3-(methylsulfonamido)-7-morpholino-1,6-naphthyridin-5-yl)oxy)cyclohexyl)amino)pyrimidin-5-yl)oxy)acetamide]: the half-maximal inhibitory concentration (IC50) on DNA-PK is less than 0.5 nM. For the same compound, in data set [1], the intrinsic clearance (microsomal CLint) at 0.1 uM is less than 116 µL/min/mg and the “Microsomal Stability Mouse % rem. 60 min” value is on record as “G (% remaining = 50-75%)”. Further, in data set [2], the intrinsic clearance (microsomal CLint) at 0.1 uM was less than 116 µL/min/mg and the “Microsomal Stability Human % rem. 60 min” value was “G (% remaining = 50-75%)”.

As usually defined, the IC50 is the concentration at which inhibition is half-maximal. Usually microsomal CLint stands for the rate of metabolic loss divided by the concentration. A high value points to rapid turnover. In general, AUC(0-t) refers to the area under the concentration-time curve up to a stated or last time point. As a reminder, the Cmax is the highest concentration seen after dosing. A word on the half-life: it is how long it takes for the measured level to halve. A low value points to fast loss.
